Measurements published in ChEMBL document CHEMBL1201862, “PubChem BioAssay data set” (2004).
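Five concentrations, 48 hours, 96-well plates. GI50 = concentration required for 50% inhibition of growth.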 The source made the active and inactive calls. Rule as the data show it: active = GI50 up to about 1.1 µM and inactive = higher.

Legend:
Assay in all cases: NCI tumour cell line growth inhibition, 48 h
786-0 = test system: 786-0
A498 = test system: A498
ACHN = test system: ACHN
BT-549 = test system: BT-549
DU-145 = test system: DU-145
HCT-116 = test system: HCT-116
HCT-15 = test system: HCT-15
M14 = test system: M14
NCI-H226 = test system: NCI-H226
OVCAR-5 = test system: OVCAR-5
SNB-75 = test system: SNB-75
SW-620 = test system: SW-620
TK-10 = test system: TK-10
UACC-257 = test system: UACC-257
UO-31 = test system: UO-31
LOX IMVI = test system: LOX IMVI
RPMI-8226 = test system: RPMI-8226
RXF 393 = test system: RXF 393
SK-MEL-2 = test system: SK-MEL-2
MDA-MB-435 = test system: MDA-MB-435

Row | Structure (SMILES) | GI50 (786-0) | GI50 (A498) | GI50 (ACHN) | GI50 (BT-549) | GI50 (DU-145) | GI50 (HCT-116) | GI50 (HCT-15) [µM] | GI50 (M14) | GI50 (NCI-H226) | GI50 (OVCAR-5) | GI50 (SNB-75) | GI50 (SW-620) | GI50 (TK-10) | GI50 (UACC-257) | GI50 (UO-31) | GI50 (LOX IMVI) | GI50 (RPMI-8226) | GI50 (RXF 393) | GI50 (SK-MEL-2) | GI50 (MDA-MB-435)
1 | CC(C)c1ccc2nc3ccc(C(=O)NCCN(C)C)cn3c(=O)c2c1 | 14.6 µM (inactive) | 14 µM (inactive) | 27.5 µM (inactive) | 14.2 µM (inactive) | 34.7 µM (inactive) | 13.9 µM (inactive) | 13.8 | 14.6 µM (inactive) | 18 µM (inactive) | 14.7 µM (inactive) | 10.4 µM (inactive) | 14.7 µM (inactive) | 17.3 µM (inactive) | 12.1 µM (inactive) | 14.6 µM (inactive) | – | – | – | – | –
2 | C#CCOCCCC(=O)O | > 100 µM (inactive) | > 100 µM (inactive) | > 100 µM (inactive) | > 100 µM (inactive) | > 100 µM (inactive) | > 100 µM (inactive) | > 100 | > 100 µM (inactive) | > 100 µM (inactive) | > 100 µM (inactive) | > 100 µM (inactive) | > 100 µM (inactive) | > 100 µM (inactive) | > 100 µM (inactive) | – | > 100 µM (inactive) | > 100 µM (inactive) | > 100 µM (inactive) | > 100 µM (inactive) | –
3 | COc1ccccc1NC(=S)N/N=C1\C(=O)Nc2ccccc21 | > 100 µM (inactive) | > 100 µM (inactive) | > 100 µM (inactive) | – | 0.762 µM (active) | > 100 µM (inactive) | > 100 | > 100 µM (inactive) | > 100 µM (inactive) | > 100 µM (inactive) | 58.9 µM (inactive) | > 100 µM (inactive) | > 100 µM (inactive) | > 100 µM (inactive) | > 100 µM (inactive) | > 100 µM (inactive) | > 100 µM (inactive) | > 100 µM (inactive) | > 100 µM (inactive) | > 100 µM (inactive)
4 | CC1(C)COC(c2cccc(C(=O)c3ccccc3)c2)=N1 | 61.1 µM (inactive) | – | 64.4 µM (inactive) | – | 75.7 µM (inactive) | > 100 µM (inactive) | 36.2 | – | – | > 100 µM (inactive) | – | > 100 µM (inactive) | 90.6 µM (inactive) | 26.2 µM (inactive) | 29.1 µM (inactive) | 38.6 µM (inactive) | 36.8 µM (inactive) | – | > 100 µM (inactive) | –
5 | COc1cc(S(=O)(=O)Nc2nc(-c3ccc(N4C(=O)C(CC(=O)O)SC4c4cccs4)cc3)cs2)ccc1Cl (configuration not stated) | 41.8 µM (inactive) | > 100 µM (inactive) | > 100 µM (inactive) | – | 43.5 µM (inactive) | 29.3 µM (inactive) | 19.9 | > 100 µM (inactive) | > 100 µM (inactive) | > 100 µM (inactive) | 17.2 µM (inactive) | 28.9 µM (inactive) | 79.4 µM (inactive) | 41.9 µM (inactive) | 19.9 µM (inactive) | 20.3 µM (inactive) | – | 15.7 µM (inactive) | 27.8 µM (inactive) | 40 µM (inactive)
6 | O=c1oc(C(C(F)(F)F)C(F)(F)F)nc2ccccc12 | > 100 µM (inactive) | > 100 µM (inactive) | > 100 µM (inactive) | – | – | > 100 µM (inactive) | > 100 | > 100 µM (inactive) | > 100 µM (inactive) | > 100 µM (inactive) | – | > 100 µM (inactive) | > 100 µM (inactive) | > 100 µM (inactive) | > 100 µM (inactive) | > 100 µM (inactive) | > 100 µM (inactive) | > 100 µM (inactive) | > 100 µM (inactive) | > 100 µM (inactive)
7 | O=C(O)CCCc1nc2c(n1Cc1ccccc1)C(=O)c1ccccc1C2=O | > 100 µM (inactive) | 34.4 µM (inactive) | 45.2 µM (inactive) | – | 29.6 µM (inactive) | 28.6 µM (inactive) | 52.4 | 3.72 µM (inactive) | – | 76.9 µM (inactive) | > 10 µM (inactive) | 40.6 µM (inactive) | > 100 µM (inactive) | 25 µM (inactive) | > 100 µM (inactive) | 40.4 µM (inactive) | 18.7 µM (inactive) | – | 14.9 µM (inactive) | –
8 | COC1=CC2(CC(OC)=C1OC)OC21COc2ccccc2C1=O (configuration not stated) | 37.7 µM (inactive) | > 100 µM (inactive) | 45.1 µM (inactive) | > 100 µM (inactive) | – | 50.5 µM (inactive) | 65.8 | 87.5 µM (inactive) | 62.5 µM (inactive) | > 100 µM (inactive) | 37.4 µM (inactive) | > 100 µM (inactive) | > 100 µM (inactive) | 44.4 µM (inactive) | 5.16 µM (inactive) | 50.5 µM (inactive) | 51.5 µM (inactive) | 46 µM (inactive) | 40.2 µM (inactive) | > 100 µM (inactive)
9 | Cc1nc(C(N)=S)sc1C(=O)C/C(=N/N)C(=O)Nc1ccc(Cl)cc1 | 40.6 µM (inactive) | – | 44.6 µM (inactive) | > 100 µM (inactive) | – | > 100 µM (inactive) | > 10 | > 100 µM (inactive) | > 100 µM (inactive) | > 100 µM (inactive) | > 100 µM (inactive) | > 100 µM (inactive) | > 100 µM (inactive) | > 100 µM (inactive) | 70.6 µM (inactive) | 82.8 µM (inactive) | 38.2 µM (inactive) | > 100 µM (inactive) | > 100 µM (inactive) | > 100 µM (inactive)
10 | C[C@]12CC[C@H]3[C@@H](CCC4=CC(=O)CC[C@@]43C)[C@@H]1CC[C@@H]2OC(=O)c1cccc2c(=O)c3ccccc3[nH]c12 | 20.3 µM (inactive) | > 100 µM (inactive) | > 100 µM (inactive) | 58.1 µM (inactive) | – | – | 37.6 | > 100 µM (inactive) | 75.3 µM (inactive) | > 100 µM (inactive) | 13.9 µM (inactive) | > 100 µM (inactive) | > 100 µM (inactive) | 99.5 µM (inactive) | > 100 µM (inactive) | 26.9 µM (inactive) | 24.3 µM (inactive) | 75.7 µM (inactive) | > 100 µM (inactive) | 43.2 µM (inactive)
11 | OCCN(CCO)c1ccc2c(c1)Cc1ccccc1-2 | > 100 µM (inactive) | 35.1 µM (inactive) | 32.1 µM (inactive) | – | 17.7 µM (inactive) | 21 µM (inactive) | 43.4 | 32.2 µM (inactive) | 44.4 µM (inactive) | 48.3 µM (inactive) | – | 64.4 µM (inactive) | 22.1 µM (inactive) | 31 µM (inactive) | 31.9 µM (inactive) | 29.9 µM (inactive) | 44.8 µM (inactive) | – | 26.7 µM (inactive) | 51.6 µM (inactive)
12 | CC(=NNC(=S)Nc1cccc(C)c1)c1cccc(C(C)=NNC(=S)Nc2cccc(C)c2)n1 | 8.18 µM (inactive) | 21.9 µM (inactive) | 7.24 µM (inactive) | – | > 100 µM (inactive) | 12.2 µM (inactive) | 15.2 | 11.8 µM (inactive) | 18.6 µM (inactive) | 34.8 µM (inactive) | 17.5 µM (inactive) | 19 µM (inactive) | 20.3 µM (inactive) | 0.0198 µM (active) | 16 µM (inactive) | 15.5 µM (inactive) | > 100 µM (inactive) | 16.2 µM (inactive) | 13.3 µM (inactive) | 22.4 µM (inactive)
13 | COc1ccc(-c2nc(N(C)C)c3ccccc3n2)cc1 | 10.9 µM (inactive) | – | 7.64 µM (inactive) | 14.2 µM (inactive) | – | 4.57 µM (inactive) | 12.1 | 14.1 µM (inactive) | 3.31 µM (inactive) | 14 µM (inactive) | 13.5 µM (inactive) | 9.48 µM (inactive) | 18.3 µM (inactive) | 16.4 µM (inactive) | 3.36 µM (inactive) | 11 µM (inactive) | 5.56 µM (inactive) | 9.29 µM (inactive) | 20.5 µM (inactive) | 15.3 µM (inactive)
14 | Cc1ccc(S(=O)(=O)Nn2c(O)c(C#N)c(-c3ccc(Cl)cc3)c(C#N)c2=O)cc1 | > 100 µM (inactive) | > 100 µM (inactive) | > 100 µM (inactive) | > 100 µM (inactive) | – | > 100 µM (inactive) | > 100 | > 100 µM (inactive) | > 100 µM (inactive) | > 100 µM (inactive) | > 100 µM (inactive) | > 100 µM (inactive) | > 100 µM (inactive) | > 100 µM (inactive) | – | > 100 µM (inactive) | > 100 µM (inactive) | > 100 µM (inactive) | > 100 µM (inactive) | > 100 µM (inactive)
15 | COc1cc2c(c(OC)c1OC)C(=O)[C@@H]1[C@H]2N1C(N)=O | > 100 µM (inactive) | – | 61.1 µM (inactive) | – | 61.4 µM (inactive) | > 100 µM (inactive) | > 100 | > 100 µM (inactive) | > 100 µM (inactive) | 87.3 µM (inactive) | 66.2 µM (inactive) | > 100 µM (inactive) | > 100 µM (inactive) | > 100 µM (inactive) | > 100 µM (inactive) | > 100 µM (inactive) | > 100 µM (inactive) | 79.8 µM (inactive) | – | > 100 µM (inactive)
16 | COc1cc(/C=C/C(=O)OCCc2ccccc2)ccc1O | 15.7 µM (inactive) | – | 18.5 µM (inactive) | 14.7 µM (inactive) | 16.6 µM (inactive) | 17.7 µM (inactive) | 21.7 | 15 µM (inactive) | – | 18.2 µM (inactive) | 15.2 µM (inactive) | 22.2 µM (inactive) | 15.1 µM (inactive) | 18.1 µM (inactive) | 13.9 µM (inactive) | 14.5 µM (inactive) | 20.5 µM (inactive) | – | 21.6 µM (inactive) | 13.4 µM (inactive)
